Assay results from PubChem BioAssay AID1918991 (Molecular Pharmacology Branch, DTP, NCI, 2023).
pIC50: −log10 of the molar value.

Test system: 186277-243-T-J2-PDC complex spheroid growth
Test: Anticancer human tumor 186277-243-T-J2-PDC patient-derived colon adenocarcinoma cell line growth inhibition [AhR]
Conditions: for pIC50: curve of first compound; for viability, T/C: stronger effect = lower value
Summary of the method: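 Spheroids combined tumor cells with HUVEC endothelial cells and human MSCs as stroma. AhR antagonists were paired with standard or investigational drugs, each dosed in half-log steps down from near clinical Cmax, or from 10 microM where Cmax was unknown.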

[1] = second compound 0.1 µM, first compound 0.0316 µM
[2] = second compound 0.1 µM, first compound 0.1 µM
[3] = second compound 0.1 µM, first compound 0.316 µM
[4] = second compound 0.1 µM, first compound 1 µM
[5] = second compound 0.316 µM, first compound 0.0316 µM
[6] = second compound 0.316 µM, first compound 0.1 µM
[7] = second compound 0.316 µM, first compound 0.316 µM
[8] = second compound 0.316 µM, first compound 1 µM
[9] = second compound 1 µM, first compound 0.0316 µM
[10] = second compound 1 µM, first compound 0.1 µM
[11] = second compound 1 µM, first compound 0.316 µM
[12] = second compound 1 µM, first compound 1 µM
[13] = second compound 3.16 µM, first compound 0.0316 µM
[14] = second compound 3.16 µM, first compound 0.1 µM
[15] = second compound 3.16 µM, first compound 0.316 µM
[16] = second compound 3.16 µM, first compound 1 µM
[17] = second compound 10 µM, first compound 0.0316 µM
[18] = second compound 10 µM, first compound 0.1 µM
[19] = second compound 10 µM, first compound 0.316 µM
[20] = second compound 10 µM, first compound 1 µM
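Note: spheroids exposed to compounds for seven days before the viability read.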
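Throughout, for viability, T/C: luminescent signal used as a stand-in for viable cell amount; 100% = DMSO vehicle control wells.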

CC1COCCN1c1cc(C2(S(C)(=N)=O)CC2)nc(-c2ccnc3[nH]ccc23)n1 (stereo not given) + Cc1ccccc1N=Nc1ccc(NC(=O)c2ccnn2C)c(C)c1
pIC50 (second compound 0.1 µM): 5.63
pIC50 (second compound 0.316 µM): 5.63
pIC50 (second compound 1 µM): 5.66
pIC50 (second compound 3.16 µM): 5.66
pIC50 (second compound 10 µM): 5.66
viability, T/C [1]: 105%
viability, T/C [2]: 97.8%
viability, T/C [3]: 81.3%
viability, T/C [4]: 90.8%
viability, T/C (second compound 0.1 µM, first compound 3.16 µM): 35.8%
viability, T/C (second compound 0.1 µM, first compound 10 µM): 11.8%
viability, T/C [5]: 99.1%
viability, T/C [6]: 90.2%
viability, T/C [7]: 98.5%
viability, T/C [8]: 97%
viability, T/C (second compound 0.316 µM, first compound 3.16 µM): 33.9%
viability, T/C (second compound 0.316 µM, first compound 10 µM): 11.3%
viability, T/C [9]: 89.4%
viability, T/C [10]: 105%
viability, T/C [11]: 81.8%
viability, T/C [12]: 84.2%
viability, T/C (second compound 1 µM, first compound 3.16 µM): 34%
viability, T/C (second compound 1 µM, first compound 10 µM): 9.66%
viability, T/C [13]: 91.2%
viability, T/C [14]: 83.8%
viability, T/C [15]: 87.6%
viability, T/C [16]: 95.1%
viability, T/C (second compound 3.16 µM, first compound 3.16 µM): 31.8%
viability, T/C (second compound 3.16 µM, first compound 10 µM): 9.83%
viability, T/C [17]: 82.1%
viability, T/C [18]: 87.2%
viability, T/C [19]: 87.5%
viability, T/C [20]: 79.7%
viability, T/C (second compound 10 µM, first compound 3.16 µM): 35.6%
viability, T/C (second compound 10 µM, first compound 10 µM): 10.9%

Nc1ncn(C2CC(O)C(CO)O2)c(=O)n1 (stereo not given) + Cc1ccccc1N=Nc1ccc(NC(=O)c2ccnn2C)c(C)c1
pIC50 (second compound 0.1 µM): < 6.00
pIC50 (second compound 0.316 µM): < 6.00
pIC50 (second compound 1 µM): < 6.00
pIC50 (second compound 3.16 µM): < 6.00
pIC50 (second compound 10 µM): < 6.00
viability, T/C (second compound 0.1 µM, first compound 0.00316 µM): 115%
viability, T/C (second compound 0.1 µM, first compound 0.01 µM): 108%
viability, T/C [1]: 105%
viability, T/C [2]: 112%
viability, T/C [3]: 103%
viability, T/C [4]: 143%
viability, T/C (second compound 0.316 µM, first compound 0.00316 µM): 118%
viability, T/C (second compound 0.316 µM, first compound 0.01 µM): 96.8%
viability, T/C [5]: 108%
viability, T/C [6]: 115%
viability, T/C [7]: 120%
viability, T/C [8]: 144%
viability, T/C (second compound 1 µM, first compound 0.00316 µM): 100%
viability, T/C (second compound 1 µM, first compound 0.01 µM): 102%
viability, T/C [9]: 102%
viability, T/C [10]: 128%
viability, T/C [11]: 119%
viability, T/C [12]: 144%
viability, T/C (second compound 3.16 µM, first compound 0.00316 µM): 103%
viability, T/C (second compound 3.16 µM, first compound 0.01 µM): 128%
viability, T/C [13]: 101%
viability, T/C [14]: 105%
viability, T/C [15]: 113%
viability, T/C [16]: 122%
viability, T/C (second compound 10 µM, first compound 0.00316 µM): 90.2%
viability, T/C (second compound 10 µM, first compound 0.01 µM): 97.2%
viability, T/C [17]: 103%
viability, T/C [18]: 109%
viability, T/C [19]: 104%
viability, T/C [20]: 103%

CCc1c2c(nc3ccc(O)cc13)-c1cc3c(c(=O)n1C2)COC(=O)[C@]3(O)CC + Cc1cncc(-c2nc(NCCc3c[nH]c4ccccc34)c3ncn(C(C)C)c3n2)c1
pIC50 (second compound 0.1 µM): 7.63
pIC50 (second compound 0.316 µM): 7.69
pIC50 (second compound 1 µM): 7.58
pIC50 (second compound 3.16 µM): 7.75
pIC50 (second compound 10 µM): > 9.02
viability, T/C (second compound 0.1 µM, first compound 0.000949 µM): 112%
viability, T/C (second compound 0.1 µM, first compound 0.003 µM): 96%
viability, T/C (second compound 0.1 µM, first compound 0.00949 µM): 66%
viability, T/C (second compound 0.1 µM, first compound 0.03 µM): 46.1%
viability, T/C (second compound 0.1 µM, first compound 0.0949 µM): 25.2%
viability, T/C (second compound 0.1 µM, first compound 0.3 µM): 11.7%
viability, T/C (second compound 0.316 µM, first compound 0.000949 µM): 126%
viability, T/C (second compound 0.316 µM, first compound 0.003 µM): 83.1%
viability, T/C (second compound 0.316 µM, first compound 0.00949 µM): 70.9%
viability, T/C (second compound 0.316 µM, first compound 0.03 µM): 44.2%
viability, T/C (second compound 0.316 µM, first compound 0.0949 µM): 21.7%
viability, T/C (second compound 0.316 µM, first compound 0.3 µM): 11.7%
viability, T/C (second compound 1 µM, first compound 0.000949 µM): 123%
viability, T/C (second compound 1 µM, first compound 0.003 µM): 83.7%
viability, T/C (second compound 1 µM, first compound 0.00949 µM): 73.5%
viability, T/C (second compound 1 µM, first compound 0.03 µM): 48.5%
viability, T/C (second compound 1 µM, first compound 0.0949 µM): 20.2%
viability, T/C (second compound 1 µM, first compound 0.3 µM): 11.8%
viability, T/C (second compound 3.16 µM, first compound 0.000949 µM): 108%
viability, T/C (second compound 3.16 µM, first compound 0.003 µM): 75.2%
viability, T/C (second compound 3.16 µM, first compound 0.00949 µM): 66.8%
viability, T/C (second compound 3.16 µM, first compound 0.03 µM): 43.7%
viability, T/C (second compound 3.16 µM, first compound 0.0949 µM): 17.3%
viability, T/C (second compound 3.16 µM, first compound 0.3 µM): 9.67%
viability, T/C (second compound 10 µM, first compound 0.000949 µM): 24.6%
viability, T/C (second compound 10 µM, first compound 0.003 µM): 28.9%
viability, T/C (second compound 10 µM, first compound 0.00949 µM): 32%
viability, T/C (second compound 10 µM, first compound 0.03 µM): 17.6%
viability, T/C (second compound 10 µM, first compound 0.0949 µM): 6.54%
viability, T/C (second compound 10 µM, first compound 0.3 µM): 3.87%
